Results from PMC12389534, “Unlocking Therapeutic Potential of Novel Thieno-Oxazepine Hybrids as Multi-Target Inhibitors of AChE/BChE and Evaluation Against Alzheimer’s Disease: In Vivo, In Vitro, Histopathological, and Docking Studies” (Pharmaceuticals, 2025).

Key:
BAX/Bcl-2 = BAX/Bcl-2 ratio of gene expression; format: in vivo, rat; settings: AlCl3-induced AD rats
Experimental: (§1) The brain tissues of the rats were removed and rigorously washed in isotonic saline 24 h after they were euthanized following the last behavioral test. For histological investigation, four brains per group were preserved for the whole night in 10% neutral buffered formalin. The remaining six brains were split into two sections each. In order to create a 10% homogenate (w/v), the first component was instantaneously homogenized using an ice-cold solution that included 300 mM sucrose and 50 mM Tris-HCl (pH 7.4). The homogenate was centrifuged at 1800× g for 10 min at 4 °C for biochemical tests, and the supernatant was thereafter kept at −20 °C. The second portion was set aside for use in RT-PCR analysis at −80 °C [94].
(§2) See Supplementary Information.

NE = test: Brain NE level (fluorometric); format: in vivo, rat; settings: AlCl3-induced AD rats; for NE (nmol/g Tissue): brain tissue, mean ± SE, n = 6
Experimental: as §1
(§3) Brain monoamine levels were promptly assessed following the rats’ euthanasia to prevent changes in the substance’s concentration. Dopamine (DA), norepinephrine (NE), and serotonin (5-HT) fluorometric tests were conducted on brain tissue homogenate using the Ciarlone method. […] The concentrations were articulated as nanograms per gram of fresh tissue using the fluorescence of reference solutions [95].

DA = test: Brain DA level (fluorometric); format: in vivo, rat; settings: AlCl3-induced AD rats; for DA (ng/g Tissue): brain tissue, mean ± SE, n = 6
Experimental: as §1, §3

MDA = test: Brain MDA content (thiobarbituric acid method); format: in vivo, rat; design: reduction in MDA brain content: concentration or dose not given beside the values; settings: AlCl3-induced AD rats; for MDA (nmol/g Tissue): brain tissue, mean ± SE, n = 6
Wnt3a = test: Brain Wnt3a level; format: in vivo, rat; settings: AlCl3-induced AD rats; for Wnt3a (ng/g Tissue): mean ± SE, n = 6
Experimental: as §1, §2

AChE [1] = format: in vivo; design: reduction in AChE levels: concentration or dose not given beside the values; settings: AlCl3-induced AD rats; for AChE (ng/g Tissue): brain tissue, mean ± SE, n = 6; for reduction in AChE levels: brain
GSK3β = GSK3β gene expression (RT-qPCR); format: in vivo, rat; settings: AlCl3-induced AD rats; for GSK3β: gene expression, mean ± SE, n = 6
Experimental: as §1, §2

SOD = test: Brain SOD activity (colorimetric); format: in vivo, rat; settings: AlCl3-induced AD rats; for SOD(U/g): brain tissue, mean ± SE, n = 6
Experimental: as §1
(§4) The SOD enzyme activity was estimated using the Marklund et al. method, which is founded on the enzyme’s capacity to decrease the nitro blue tetrazolium dye at a wavelength of 540 nm. To evaluate the TAC, a colorimetric approach was employed to estimate the amount of hydrogen peroxide that remains after 3,5-dichloro-2-hydroxybenzene sulphonate is converted to a colored product at 660 nm.

β-catenin = test: Brain β-catenin level; format: in vivo, rat; settings: AlCl3-induced AD rats; for β-Catenin (ng/L): mean ± SE, n = 6
Experimental: as §1, §2

BAX = BAX gene expression (RT-qPCR); format: in vivo, rat; settings: AlCl3-induced AD rats; for BAX: gene expression, mean ± SE, n = 6
Experimental: as §1, §2

HO-1 = HO-1 mRNA expression (RT-qPCR); format: in vivo, rat; settings: AlCl3-induced AD rats; for HO-1: mRNA expression in brain tissue, mean ± SE, n = 6
Experimental: as §1, §2

TNF-α = test: Brain TNF-α level (ELISA); format: in vivo, rat; settings: AlCl3-induced AD rats; for TNF-α (pg/g Tissue): mean ± SE, n = 6
Experimental: as §1, with “[94]. […]” for “[94].”

TAC = test: Brain TAC (colorimetric); format: in vivo, rat; settings: AlCl3-induced AD rats; for TAC (µmol/g Tissue): brain tissue, mean ± SE, n = 6
Experimental: as §1, §4

Nrf-2 = Nrf-2 mRNA expression (RT-qPCR); format: in vivo, rat; settings: AlCl3-induced AD rats; for Nrf-2: mRNA expression in brain tissue, mean ± SE, n = 6
Experimental: as §1, §2

Bcl-2 = Bcl-2 gene expression (RT-qPCR); format: in vivo, rat; settings: AlCl3-induced AD rats; for Bcl-2: gene expression, mean ± SE, n = 6
Experimental: as §1, §2

AChE [2] = target: T1, AChE (Homo sapiens, UniProt P22303); test: biochemical; settings: colorimetric kit, 412 nm
T1 construct: purchased BioVision K197-100
Experimental: All newly created compounds were subjected to an AChE enzyme inhibitory screening. This was performed with the Colorimetric AChE Inhibitor Screening Kit (BioVision Catalog # K197-100). The 96-well assay kit provides a rapid, simple, and reliable way to screen for AChE inhibitors in large quantities. […] A completely transparent 96-well plate with a flat bottom was loaded with 10 µL of test inhibitors that were diluted (20×). […] A measure of 10 μL of diluted AChE was applied to each well that contained compounds, inhibitor control, and solvent control. […] Measures of 25 μL of AChE assay buffer, 5 μL of probe mix, and 10 μL of diluted AChE substrate were mixed to create the reaction mix. The reaction mix was mixed with the compound, enzyme control, and inhibitor control. […] The IC50 was calculated using nonlinear regression analysis using the response–concentration (log) curve.

T1 sequence (P22303 32-614): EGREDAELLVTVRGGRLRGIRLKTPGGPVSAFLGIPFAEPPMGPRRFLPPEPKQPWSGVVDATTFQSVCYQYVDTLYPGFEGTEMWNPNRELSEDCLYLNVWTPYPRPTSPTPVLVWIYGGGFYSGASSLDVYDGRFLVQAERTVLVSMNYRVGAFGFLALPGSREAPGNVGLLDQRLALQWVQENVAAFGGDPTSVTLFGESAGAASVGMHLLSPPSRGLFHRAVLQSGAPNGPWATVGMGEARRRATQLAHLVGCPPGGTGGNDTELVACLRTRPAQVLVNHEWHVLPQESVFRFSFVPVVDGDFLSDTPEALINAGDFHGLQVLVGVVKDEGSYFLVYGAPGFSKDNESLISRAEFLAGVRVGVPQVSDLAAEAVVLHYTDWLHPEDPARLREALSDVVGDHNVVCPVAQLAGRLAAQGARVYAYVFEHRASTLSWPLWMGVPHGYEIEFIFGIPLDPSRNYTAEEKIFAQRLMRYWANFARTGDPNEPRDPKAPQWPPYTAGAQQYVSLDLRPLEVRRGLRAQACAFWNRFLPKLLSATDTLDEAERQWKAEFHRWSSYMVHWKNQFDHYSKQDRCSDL

Structure (SMILES) | BAX/Bcl-2 Ratio (BAX/Bcl-2) | NE (nmol/g Tissue) (NE) | DA (ng/g Tissue) (DA) | MDA (nmol/g Tissue) (MDA) | elevation of Wnt3a levels (Wnt3a) | Wnt3a (ng/g Tissue) (Wnt3a) | AChE (ng/g Tissue) (AChE [1]) | reduction in AChE levels (AChE [1]) | GSK3β (GSK3β) | SOD(U/g) (SOD) | elevation of β-catenin levels (β-catenin) | β-Catenin (ng/L) (β-catenin) | BAX (BAX) | HO-1 (HO-1) | decline in TNF-α levels (TNF-α) | TNF-α (pg/g Tissue) (TNF-α) | improvement of TAC levels (TAC) | TAC (µmol/g Tissue) (TAC) | Nrf-2 (Nrf-2) | Bcl-2 (Bcl-2) | also measured
CCOC(=O)c1c(O)sc2c1CCCCC2 [Compound 2, Ethyl 2-hydroxy-5,6,7,8-tetrahydro-4H-cyclohepta[b]thiophene-3-carboxylate] | 30.11 | 256.9 ± 1.62 ^abc nmol/g Tissue | 24.71 ± 1.62 ^abc ng/g Tissue | 92.07 ± 0.04 ^abc nmol/g Tissue | 2 fold | 0.25 ± 0.01 ^abc ng/g Tissue | 51.41 ± 0.13 ^abc ng/g Tissue | 23.6% | 8.80 ± 0.12 ^abc | 0.68 ± 0.26 ^abc U/g | 2.7 fold | 4.262 ± 0.12 ^abc ng/L | 8.13 ± 0.070 ^abc | 0.34 ± 0.032 ^abc | 31% | 121.4 ± 0.97 ^abc pg/g Tissue | 1.9 times | 18.26 ± 0.395 ^abc µmol/g Tissue | 0.25 ± 0.008 ^abc | 0.27 ± 0.007 ^abc | reduction of GSK3β gene expression (GSK3β): 13.7%; suppression of BAX gene expression (BAX): 16%; IC50 (AChE [2]): 1.1 ± 0.04 µM
CCOC(=O)c1c(OC(=O)CCl)sc2c1CCCCC2 [Compound 4, Ethyl 2-(2-chloroacetoxy)-5,6,7,8-tetrahydro-4H-cyclohepta[b]thiophene-3-carboxylate] | 19.53 | 282.6 ± 1.2 ^abc nmol/g Tissue | 30.69 ± 1.2 ^abc ng/g Tissue | 77.14 ± 0.06 ^abc nmol/g Tissue | 2.8 fold | 0.34 ± 0.01 ^abc ng/g Tissue | 43.89 ± 0.19 ^abc ng/g Tissue | 34.8% | 6.86 ± 0.15 ^abc | 1.75 ± 0.31 ^abc U/g | 3.9 fold | 6.17 ± 0.07 ^abc ng/L | 7.42 ± 0.030 ^abc | 0.39 ± 0.007 ^abc | 35.4% | 113.6 ± 0.83 ^abc pg/g Tissue | 2.7 times | 25.87 ± 0.965 ^abc µmol/g Tissue | 0.31 ± 0.004 ^abc | 0.38 ± 0.020 ^abc | reduction in MDA brain content (MDA): 33.6%; reduction of GSK3β gene expression (GSK3β): 32.7%; SOD activity levels (SOD; brain): 1.75 U/g tissue; suppression of BAX gene expression (BAX): 23.3%; IC50 (AChE [2]): 41.2 ± 1.42 µM
O=C1CN(c2ccccc2)C(=O)c2c(sc3c2CCCCC3)O1 [Compound 11, 4-Phenyl-3,4,7,8,9,10-hexahydro-6H-cyclohepta[4,5]thieno[3,2-f][1,4]oxazepine-2,5-dione] | 13.15 | 321.2 ± 6.11 ^abc nmol/g Tissue | 54.63 ± 6.11 ^abc ng/g Tissue | 36.75 ± 0.09 ^abc nmol/g Tissue | 3.9 fold | 0.47 ± 0.01 ^abc ng/g Tissue | 20.09 ± 0.45 ^abc ng/g Tissue | 70.1% | 2.34 ± 0.06 ^abc | 2.46 ± 0.32 ^abc U/g | 4.8 fold | 7.25 ± 0.04 ^abc ng/L | 6.84 ± 0.090 ^abc | 0.53 ± 0.004 ^abc | 43.6% | 99.23 ± 0.42 ^abc pg/g Tissue | 4 times | 38.23 ± 0.50 ^abc µmol/g Tissue | 0.35 ± 0.006 ^abc | 0.52 ± 0.020 ^abc | rise in the level of NE (NE): 1.7 times; elevation of DA levels (DA): 4.6 fold; reduction in MDA brain content (MDA): 68.4%; suppression of BAX gene expression (BAX): 29.3%; elevation of HO-1 mRNA expression (HO-1): 4.4 fold; upregulation of Bcl-2 gene expression (Bcl-2): 4.3 fold; IC50 (AChE [2]): 2.67 ± 0.09 µM
O=C1CN(c2ccc(Cl)cc2)C(=O)c2c(sc3c2CCCCC3)O1 [Compound 12, 4-(4-Chlorophenyl)-3,4,7,8,9,10-hexahydro-6H-cyclohepta[4,5]thieno[3,2-f][1,4]oxazepine-2,5-dione] | 5.91 | 420.5 ± 2.86 ^abc nmol/g Tissue | 38.37 ± 2.86 ^abc ng/g Tissue | 72.02 ± 0.05 ^abc nmol/g Tissue | 6.3 fold | 0.76 ± 0.01 ^abc ng/g Tissue | 35.66 ± 0.19 ^abc ng/g Tissue | 47% | 5.36 ± 0.07 ^abc | 2.15 ± 0.39 ^abc U/g | 6.3 fold | 9.91 ± 0.15 ^abc ng/L | 4.85 ± 0.110 ^abc | 0.69 ± 0.020 ^abc | 62.5% | 65.98 ± 0.91 ^abc pg/g Tissue | approximately 3 times | 29.33 ± 0.57 ^abc µmol/g Tissue | 0.64 ± 0.020 ^abc | 0.82 ± 0.020 ^abc | rise in the level of NE (NE): 2.2 times; elevation of DA levels (DA): 3.2 fold; reduction in MDA brain content (MDA): 38%; reduction of GSK3β gene expression (GSK3β): 47.4%; elevation of HO-1 mRNA expression (HO-1): 5.7 fold; elevation of Nrf-2 mRNA expression (Nrf-2): 4 fold; upregulation of Bcl-2 gene expression (Bcl-2): 6.8 fold; IC50 (AChE [2]): 10.9 ± 0.38 µM
